According to patent US12577248B2, “Substituted [1,2,4]triazolo[1,5-a]pyrazines as spleen tyrosine kinase inhibitors” (NANJING RUIJIE PHARMA CO., LTD., priority 2020, dated 2026):

Legend:
Ba/F3-TEL-SYK cells = target: T1, Ba/F3-TEL-SYK cells (Homo sapiens, UniProt P43405); test: Ba/F3-TEL-SYK cell-based assay (CellTiter-Glo proliferation); conditions: 72 hr, read-out: BaF3 Cell assay IC50
T1 construct: fused on or other part: N-terminal part of TEL (ETV6) with its oligomerising PNT/SAM domain, fused before the SYK part that carries the kinase domain; P41212 (Transcription factor ETV6)
Description: CellTiter-Glo® Luminescent Cell Viability Assay was used to determine the number of viable cells in culture based on quantitation of the ATP present, as an indicator of metabolically active cells. The assay was performed in the following steps: First, the testing compounds were dissolved in DMSO to make a stock solution. The stocks (10 mM) were then diluted to varying concentrations: […], 0.305 and 0.102 μM. An aliquot of 0.2 μl of diluted compounds were added to the 384 well assay plate. Second, added 40 μl of cell suspension with 800 Ba/F3-TEL-SYK cells into each well and incubated the plate at 37° C., 5% CO2 for 72 hr. Then, added 20 μl Cell Titer-Glo Reagent into each well of the cell culture plate. Mixed the contents for 2 min on an orbital shaker to lyse cells, and rest the plate at room temperature for 30 min. Finally, luminescence values were obtained using an Envision 2104 plate reader (PerkinElmer) and calculated the average data and Standard Deviation (SD) of DMSO and Reference (GS-9973, 1 μM) as high control and low control. To determine the IC50 value, fit the data using non-linear regression equation.

SYK kinase = SYK kinase (Homo sapiens, UniProt P43405); test: SYK kinase assay (HTRF KinEASE-TK); type: biochemical; conditions: class symbols, read-out: Syk inhibition IC50
Outline: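 SYK pre-incubated with compound for 10 min at room temperature, then reacted with biotinylated TK substrate and ATP for 30 min in buffer with 5 mM MgCl2, 1 mM MnCl2 and 1 mM DTT. HTRF 665/615 ratio read after 1 h detection. IC50 from variable-slope fit.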

[1] = In vivo pharmacokinetic analysis, single dose, ICR mice; conditions: mouse, male, plasma; for AUC(0-inf) / AUC(0-t) / Cmax / Tmax / half-life: single dose; for bioavailability: PO 10 mg/kg vs IV 2 mg/kg, read-out: F % (bioavailability)
Description: This is a single-dose study in ICR mice (male, n=9/administration) with intravenous and oral administration. Compound concentrations in plasma were measured and calculated for pharmacokinetic (PK) analysis via WinNonLin 6.4.

Row | Structure (SMILES) | GI50 (Ba/F3-TEL-SYK cells) [nM] | IC50 (SYK kinase) [nM] | AUC(0-inf) ([1]; IV Administration (2 mg/kg)) [ng·h/mL] | AUC(0-t) ([1]; IV Administration (2 mg/kg)) [ng·h/mL] | Cmax ([1]; IV Administration (2 mg/kg)) [ng/mL] | Tmax ([1]; IV Administration (2 mg/kg)) [min] | half-life ([1]; IV Administration (2 mg/kg)) [min] | AUC(0-inf) ([1]; PO Administration (10 mg/kg)) [ng·h/mL] | AUC(0-t) ([1]; PO Administration (10 mg/kg)) [ng·h/mL] | Cmax ([1]; PO Administration (10 mg/kg)) [ng/mL] | Tmax ([1]; PO Administration (10 mg/kg)) [min] | half-life ([1]; PO Administration (10 mg/kg)) [min] | bioavailability [1] [%]
1 | COc1cc(Nc2nc(-c3ccc4cn[nH]c4c3)cn3ncnc23)ccc1N1CCC(C)(O)CC1 [I22, 1-(4-((6-(1H-indazol-6-yl)-[1,2,4]triazolo[1,5-a]pyrazin-8-yl)amino)-2-methoxyphenyl)-4-methylpiperidin-4-ol] | ≤ 50 | ≤ 50 | 429 | 428 | 1320 | 4.8 | 12.6 | 125 | 115 | 108 | 15 | 28.8 | 5.38
2 | c1nc2c(Nc3ccc(N4CCN(C5COC5)CC4)cc3)nc(-c3ccc4cn[nH]c4c3)cn2n1 [I53, 6-(1H-indazol-6-yl)-N-(4-(4-(oxetan-3-yl)piperazin-1-yl)phenyl)-[1,2,4]triazolo[1,5-a]pyrazin-8-amine] | ≤ 50 | ≤ 50 | 2300 | 2290 | 3960 | 4.8 | 590 | 7370 | 7330 | 7520 | 15 | 265 | 64.2
3 | COc1cc(Nc2nc(-c3ccc4cc[nH]c4c3)cn3ncnc23)ccc1N1CCN(C2COC2)CC1 [I58, 6-(1H-indol-6-yl)-N-(3-methoxy-4-(4-(oxetan-3-yl)piperazin-1-yl)phenyl)-[1,2,4]triazolo[1,5-a]pyrazin-8-amine] | ≤ 50 | ≤ 50 | 1680 | 1680 | 5110 | 4.8 | 42.6 | 902 | 895 | 2570 | 15 | 89.4 | 10.7
4 | FC(F)(F)Oc1cc(Nc2nc(-c3ccc4cc[nH]c4c3)cn3ncnc23)ccc1N1CC2CC1CN2C1COC1 (stereo not drawn) [I77, 6-(1H-indol-6-yl)-N-(4-(5-(oxetan-3-yl)-2,5-diazabicyclo[2.2.1]heptan-2-yl)-3-(trifluoromethoxy)phenyl)-[1,2,4]triazolo[1,5-a]pyrazin-8-amine] | > 5000 | 50 to 500 |  |  |  |  |  |  |  |  |  |  | 
5 | CCOc1cc(Nc2nc(-c3ccc4cc[nH]c4c3)cn3ncnc23)ccc1N1CC2CC1CN2C1COC1 (stereo not drawn) [I79, N-(3-ethoxy-4-(5-(oxetan-3-yl)-2,5-diazabicyclo[2.2.1]heptan-2-yl)phenyl)-6-(1H-indol-6-yl)-[1,2,4]triazolo[1,5-a]pyrazin-8-amine] | 50 to 500 | ≤ 50 |  |  |  |  |  |  |  |  |  |  | 
6 | c1nc2c(Nc3ccc(N4CC5CC4CN5C4COC4)cc3)nc(-c3ccc4cc[nH]c4c3)cn2n1 (stereo not drawn) [I82, 6-(1H-indol-6-yl)-N-(4-(5-(oxetan-3-yl)-2,5-diazabicyclo[2.2.1]heptan-2-yl)phenyl)-[1,2,4]triazolo[1,5-a]pyrazin-8-amine] | 500 to 5000 | ≤ 50 |  |  |  |  |  |  |  |  |  |  | 

Now from value to compound:

Row | GI50 (Ba/F3-TEL-SYK cells) [nM] | IC50 (SYK kinase) [nM] | AUC(0-inf) ([1]; IV Administration (2 mg/kg)) [ng·h/mL] | AUC(0-t) ([1]; IV Administration (2 mg/kg)) [ng·h/mL] | Cmax ([1]; IV Administration (2 mg/kg)) [ng/mL] | Tmax ([1]; IV Administration (2 mg/kg)) [min] | half-life ([1]; IV Administration (2 mg/kg)) [min] | AUC(0-inf) ([1]; PO Administration (10 mg/kg)) [ng·h/mL] | AUC(0-t) ([1]; PO Administration (10 mg/kg)) [ng·h/mL] | Cmax ([1]; PO Administration (10 mg/kg)) [ng/mL] | Tmax ([1]; PO Administration (10 mg/kg)) [min] | half-life ([1]; PO Administration (10 mg/kg)) [min] | bioavailability [1] [%] | Structure (SMILES)
7 | ≤ 50 | ≤ 50 | 983 | 980 | 2520 | 4.8 | 15 | 448 | 381 | 88.8 | 30 | 54 | 7.77 | COc1cc(Nc2nc(-c3ccc4cn[nH]c4c3)cn3ncnc23)ccc1N1CCOCC1 [I1, 6-(1H-indazol-6-yl)-N-(3-methoxy-4-morpholinophenyl)-[1,2,4]triazolo[1,5-a]pyrazin-8-amine]
8 | ≤ 50 | ≤ 50 | 1010 | 1010 | 1870 | 4.8 | 34.2 | 2260 | 1960 | 696 | 15 | 168 | 38.9 | COc1cc(Nc2nc(-c3ccc4cc[nH]c4c3)cn3ncnc23)ccc1N1CCOCC1 [I2, 6-(1H-indol-6-yl)-N-(3-methoxy-4-morpholinophenyl)-[1,2,4]triazolo[1,5-a]pyrazin-8-amine]
9 | 50 to 500 | ≤ 50 | 11400 | 11200 | 8810 | 4.8 | 99 | 28500 | 28500 | 2160 | 240 | 100 | 50.8 | c1nc2c(Nc3ccc(N4CCOCC4)cc3)nc(-c3ccc4cc[nH]c4c3)cn2n1 [I10, 6-(1H-indol-6-yl)-N-(4-morpholinophenyl)-[1,2,4]triazolo[1,5-a]pyrazin-8-amine]
10 | ≤ 50 | ≤ 50 | 500 | 499 | 1640 | 4.8 | 39 | 151 | 145 | 268 | 15 | 46.8 | 5.81 | COc1cc(Nc2nc(-c3ccc4cn[nH]c4c3)cn3ncnc23)ccc1N1CCN(C2COC2)CC1 [I54, 6-(1H-indazol-6-yl)-N-(3-methoxy-4-(4-(oxetan-3-yl)piperazin-1-yl)phenyl)-[1,2,4]triazolo[1,5-a]pyrazin-8-amine]
11 | ≤ 50 | ≤ 50 | 4670 | 4670 | 7360 | 4.8 | 43.2 | 14500 | 14500 | 14400 | 15 | 196 | 62 | c1nc2c(Nc3ccc(N4CCN(C5COC5)CC4)cc3)nc(-c3ccc4cc[nH]c4c3)cn2n1 [I57, 6-(1H-indol-6-yl)-N-(4-(4-(oxetan-3-yl)piperazin-1-yl)phenyl)-[1,2,4]triazolo[1,5-a]pyrazin-8-amine]
12 | 500 to 5000 | ≤ 50 |  |  |  |  |  |  |  |  |  |  |  | FC(F)Oc1cc(Nc2nc(-c3ccc4cc[nH]c4c3)cn3ncnc23)ccc1N1CC2CC1CN2C1COC1 (stereo not drawn) [I78, N-(3-(difluoromethoxy)-4-(5-(oxetan-3-yl)-2,5-diazabicyclo[2.2.1]heptan-2-yl)phenyl)-6-(1H-indol-6-yl)-[1,2,4]triazolo[1,5-a]pyrazin-8-amine]
13 | 500 to 5000 | 50 to 500 |  |  |  |  |  |  |  |  |  |  |  | CC(C)Oc1cc(Nc2nc(-c3ccc4cc[nH]c4c3)cn3ncnc23)ccc1N1CC2CC1CN2C1COC1 (stereo not drawn) [I81, 6-(1H-indol-6-yl)-N-(3-isopropoxy-4-(5-(oxetan-3-yl)-2,5-diazabicyclo[2.2.1]heptan-2-yl)phenyl)-[1,2,4]triazolo[1,5-a]pyrazin-8-amine]
